Converted amounts (≈) assume the structure as drawn.
Key:
Candida albicans = test: In Vivo Activity (Systemic Candidiasis); conditions: po, 576 h, orally at 1 mg/kg at 1, 4 and 24 h after infection, male mice, i.v. infection, read-out: protection on the day where all the animals in the control group had died
Protocol: Groups of 10 male mice were inoculated i.v. with 0.2 mL of a suspension containing (2-8)×10^7 cfu/mL of Candida albicans. Compounds were administered orally at 1 mg/kg (or at 10 mg/kg for those compounds marked with an asterisk) at times 1, 4 and 24 h after infection.

Aspergillus fumigatus = test: In vitro activity by the agar dilution method, Aspergillus fumigatus; assay type: cell-based; conditions: 120 h, Kimmig's agar, 25° C., 5 days, read-out: MIC (minimal inhibitory concentration), Asp. fumigatus
Protocol: (§1) In vitro activity was evaluated against C. albicans, C. krusei, and Aspergillus fumigatus by the agar dilution method. Test strains were either clinical isolates or were obtained from ATCC. Stock solutions containing 800 μg/mL were prepared by solving the test products in 50% ethanol. The culture medium used was Kimmig's agar (K. A., E. Merck) supplemented with 0.5% glycerol. Plates containing serial dilutions (80 to 0.025 gg/imL) of the test products were inoculated with 10 μL of the fungal inocula, containing 10^5 colony forming units (cfu)/mL. Plates were incubated at 25° C. during 48 h for Candida sp. and during 5 days for Apergillus fumigatus. Following incubation MICs (minimal inhibitory concentrations) were determined.

C. krusei = test: In vitro activity by the agar dilution method, C. krusei; assay type: cell-based; conditions: Pichia kudriavzevii; Kimmig's agar, 25° C., 48 h; read-out: MIC (minimal inhibitory concentration), C. krusei
Protocol: as §1

C. albicans = test: In vitro activity by the agar dilution method, C. albicans; assay type: cell-based; conditions: Candida albicans; Kimmig's agar, 25° C., 48 h; read-out: MIC (minimal inhibitory concentration), C. albicans
Protocol: as §1

MIC (Aspergillus fumigatus) | MIC (C. krusei) | MIC (C. albicans) | Structure (SMILES) | responders at 1 mg/kg (Candida albicans)
 |  |  | C[C@@H](n1cnc2cc(Cl)ccc2c1=O)[C@](O)(Cn1cncn1)c1ccc(Cl)cc1Cl [Example 52, (1R,2R)-7-Chloro-3-[2-(2,4-dichlorophenyl)-2-hydroxy-1-methyl-3-(1H-1,2,4-triazol-1-yl)propyl]quinazolin-4(3H)-one] | 100%
10 µg/mL (≈ 20.9 µM) | 0.31 µg/mL (≈ 0.646 µM) | ≤ 0.03 µg/mL | C[C@@H](n1cnc2cc(-c3ccc(F)cc3)sc2c1=O)[C@](O)(Cn1cncn1)c1ccccc1F [Example 81, (1R,2R)-6-(4-Fluorophenyl)-3-[2-(2-fluorophenyl)-2-hydroxy-1-methyl-3-(1H-1,2,4-triazol-1-yl)propyl]thieno[3,2-d]pyrimidin-4(3H)-one] | 100%
 |  |  | C[C@@H](n1cnc2cc(OCC(F)F)ccc2c1=O)[C@](O)(Cn1cncn1)c1ccc(F)cc1F [Example 19, (1R,2R)-7-(2,2-Difluoroethoxy)-3-[2-(2,4-difluorophenyl)-2-hydroxy-1-methyl-3-(1H-1,2,4-triazol-1-yl)propyl]quinazolin-4(3H)-one] | 100%
 |  |  | C[C@@H](n1cnc2cc(-c3ccc(C(F)(F)F)cc3)sc2c1=O)[C@](O)(Cn1cncn1)c1ccc(F)cc1F [Example 33, (1R,2R)-3-[2-(2,4-Difluorophenyl)-2-hydroxy-1-methyl-3-(1H-1,2,4-triazol-1-yl)propyl]-6-[(4-trifluoromethyl)phenyl]thieno[3,2-d]pyrimidin-4(3H)-one] | 100%
 |  |  | C[C@@H](n1cnc2cc(C(F)(F)F)ccc2c1=O)[C@](O)(Cn1cncn1)c1ccc(Cl)cc1Cl [Example 53, (1R,2R)-3-[2-(2,4-Dichlorophenyl)-2-hydroxy-1-methyl-3-(1H-1,2,4-triazol-1-yl)propyl]-7-trifluoromethylquinazolin-4(3H)-one] | 100%
 |  |  | C[C@@H](n1cnc2cc(-c3ccc(OCC(F)(F)C(F)F)cc3)sc2c1=O)[C@](O)(Cn1cncn1)c1ccc(F)cc1F [Example 34, (1R,2R)-3-[2-(2,4-Difluorophenyl)-2-hydroxy-1-methyl-3-(1H-1,2,4-triazol-1-yl)propyl]-6-[4-(2,2,3,3-tetrafluoropropoxy)phenyl]thieno[3,2-d]pyrimidin-4(3H)-one] | 100%
40 µg/mL (≈ 97.2 µM) | 2.5 µg/mL (≈ 6.08 µM) | ≤ 0.03 µg/mL | Cc1ccc2ncn([C@H](C)[C@](O)(Cn3cncn3)c3ccc(F)cc3F)c(=O)c2c1 [Example 24, (1R,2R)-3-[2-(2,4-Difluorophenyl)-2-hydroxy-1-methyl-3-(1H-1,2,4-triazol-1-yl)propyl]-6-methylquinazolin-4(3H)-one] | 
5 µg/mL (≈ 9.3 µM) | 5 µg/mL (≈ 9.3 µM) | 0.31 µg/mL (≈ 0.577 µM) | C[C@@H](n1cnc2cc(S(=O)(=O)c3ccccc3)ccc2c1=O)[C@](O)(Cn1cncn1)c1ccc(F)cc1F [Example 61, (1R,2R)-3-[2-(2,4-Difluorophenyl)-2-hydroxy-1-methyl-3-(1H-1,2,4-triazol-1-yl)propyl]-7-phenylsulfonylquinazolin-4(3H)-one] | 
 |  |  | C[C@@H](n1cnc2cc(-c3ccc(C4=NCCO4)cc3)sc2c1=O)[C@](O)(Cn1cncn1)c1ccc(F)cc1F [Example 69, (1R,2R)-3-[2-(2,4-Difluorophenyl)-2-hydroxy-1-methyl-3-(1-H-1,2,4-triazol-1-yl)propyl]-6-[4-(4,5-dihydrooxazol-2-yl)phenyl]thieno[3,2-d]pyrimidin-4(3H)-one] | 100%
20 µg/mL (≈ 44.7 µM) | 5 µg/mL (≈ 11.2 µM) | ≤ 0.03 µg/mL | C[C@@H](n1cnc2cc3ccccc3cc2c1=O)[C@](O)(Cn1cncn1)c1ccc(F)cc1F [Example 38, (1R,2R)-3-[2-(2,4-Difluorophenyl)-2-hydroxy-1-methyl-3-(1H-1,2,4-triazol-1-yl)propyl]benzo[g]quinazolin4(3H)-one] | 
 |  |  | C[C@@H](n1cnc2cc(S(C)(=O)=O)ccc2c1=O)[C@](O)(Cn1cncn1)c1ccc(F)cc1F [Example 51, (1R,2R)-3-[2-(2,4-Difluorophenyl)-2-hydroxy-1-methyl-3-(1H-1,2,4-triazol-1-yl)propyl]-7-(methylsulfonyl)quinazolin-4(3H)-one] | 100%
1.25 µg/mL (≈ 3.01 µM) | 1.25 µg/mL (≈ 3.01 µM) | ≤ 0.03 µg/mL | C[C@@H](n1cnc2cc(F)ccc2c1=O)[C@](O)(Cn1cncn1)c1ccc(F)cc1F [Example 12, (1R,2R)-3-[2-(2,4-Difluorophenyl)-2-hydroxy-1-methyl-3-(1H-1,2,4-triazol-1-yl)propyl]-7-fluoroquinazolin-4(3H)-one] | 
 |  |  | C[C@@H](n1cnc2cc(-c3ccc(C(=N)NC#N)cc3)sc2c1=O)[C@](O)(Cn1cncn1)c1ccc(F)cc1F [Example 65, (1R,2R)-6-[4-[Cyanoamino(imino)methyl]phenyl]-3-[2-(2,4-difluorophenyl)-2-hydroxy-1-methyl-3-(1H-1,2,4-triazol-1-yl)propyl]thieno[3,2-d]pyrimidin-4(3H)-one] | 100%
 |  |  | C[C@@H](n1cnc2cc(-c3ccc(Cl)cc3)sc2c1=O)[C@](O)(Cn1cncn1)c1ccc(Cl)cc1Cl [Example 54, (1R,2R)-6-(4-Chlorophenyl)-3-[2-(2,4-dichlorophenyl)-2-hydroxy-1-methyl-3-(1H-1,2,4-triazol-1-yl)propyl]thieno[3,2-d]pyrimidin-4(3H)-one] | 100%
 |  |  | C[C@@H](n1cnc2cc(-c3ccc(C#N)cc3)sc2c1=O)[C@](O)(Cn1cncn1)c1ccc(Cl)cc1Cl [Example 55, (1R,2R)-4-[3-[2-(2,4-Dichlorophenyl)-2-hydroxy-1-methyl-3-(1H-1,2,4-triazol-1-yl)propyl]-4-oxo-3,4-dihydrothieno[3,2-d]pyrimidin-6-yl]benzonitrile] | 100%
20 µg/mL (≈ 35.4 µM) | 10 µg/mL (≈ 17.7 µM) | 0.07 µg/mL (≈ 0.124 µM) | C[C@@H](n1cnc2cc(-c3ccc(C(=N)NCCN)cc3)sc2c1=O)[C@](O)(Cn1cncn1)c1ccc(F)cc1F [Example 70, (1R,2R)-6-[4-[(2-Aminoethylamino)(imino)methyl]phenyl]-3-[2-(2,4-difluorophenyl)-2-hydroxy-1-methyl-3-(1H-1,2,4-triazol-1-yl)propyl]thieno[3,2-d]pyrimidin-4(3H)-one] | 
 |  |  | C[C@@H](n1cnc2cc(-n3cncn3)ccc2c1=O)[C@](O)(Cn1cncn1)c1ccc(F)cc1F [Example 48, (1R,2)-3-[2-(2,4-Difluorophenyl)-2-hydroxy-1-methyl-3-(1H-1,2,4-triazol-1-yl)propyl]-7-(1H-1,2,4-triazol-1-yl)quinazolin-4(3H)-one] | 100%
 |  |  | C[C@@H](n1cnc2c(Cl)cc(Cl)cc2c1=O)[C@](O)(Cn1cncn1)c1ccc(F)cc1F [Example 9, (1R,2R)-6,8Dichloro-3-[2-(2,4-difluorophenyl)-2-hydroxy-1-methyl-3-(1H-1,2,4-triazol-1-yl)propyl]quinazolin4(3H)-one] | 100%
5 µg/mL (≈ 9.95 µM) | 2.5 µg/mL (≈ 4.97 µM) | ≤ 0.03 µg/mL | C[C@@H](n1cnc2cc(NCc3ccccc3)ccc2c1=O)[C@](O)(Cn1cncn1)c1ccc(F)cc1F [Example 71, (1R,2R)-7-Benzylamino-3-[2-(2,4-difluorophenyl)-2-hydroxy-1-methyl-3-(1H-1,2,4-triazol-1-yl)propyl]quinazolin-4(3H)-one] | 
10 µg/mL (≈ 25.2 µM) | 5 µg/mL (≈ 12.6 µM) | 0.07 µg/mL (≈ 0.176 µM) | C[C@@H](n1cnc2ccccc2c1=O)[C@](O)(Cn1cncn1)c1ccc(F)cc1F [Example 5, (1R,2R)-3-[2-(2,4-Difluorophenyl)-2-hydroxy-1-methyl-3-(1H-1,2,4-triazol-1-yl)propyl]quinazolin-4(3H)-one] | 
 |  |  | C[C@@H](n1cnc2cc(-c3ccc(C(=N)NO)cc3)sc2c1=O)[C@](O)(Cn1cncn1)c1ccc(F)cc1F [Example 62, (1R,2R)-3-[2-(2,4-Difluorophenyl)-2-hydroxy-1-methyl-3-(1H-1,2,4-triazol-1-yl)propyl]-6-[4-[(hydroxyamino)iminomethyl]phenyl]thieno[3,2-d]pyrimidin-4(3H)-one] | 100%
10 µg/mL (≈ 21.8 µM) | 0.63 µg/mL (≈ 1.37 µM) | 0.15 µg/mL (≈ 0.327 µM) | C[C@@H](n1cnc2cc(N(C)C)c(F)cc2c1=O)[C@](O)(Cn1cncn1)c1ccc(F)cc1F [Example 4, (1R,2R)-3-[2-(2,4-Difluorophenyl)-2-hydroxy-1-methyl-3-(1H-1,2,4-triazol-1-yl)propyl]-7-dimethylamino-6-fluoroquinazolin-4(3H)-one] | 
0.63 µg/mL (≈ 1.25 µM) | 0.31 µg/mL (≈ 0.613 µM) | ≤ 0.03 µg/mL | C[C@@H](n1cnc2cc(Sc3ccccc3)ccc2c1=O)[C@](O)(Cn1cncn1)c1ccc(F)cc1F [Example 60, (1R,2R)-3-[2-(2,4-Difluorophenyl)-2-hydroxy-1-methyl-3-(1H-1,2,4-triazol-1-yl)propyl]-7-(phenylthio)quinazolin-4(3H)-one] | 
 |  |  | C[C@@H](n1cnc2ccc(Br)cc2c1=O)[C@](O)(Cn1cncn1)c1ccc(F)cc1F [Example 10, (1R,2R)-6-Bromo-3-[2-(2,4-difluorophenyl)-2-hydroxy-1-methyl-3-(1H-1,2,4-triazol-1-yl)propyl]quinazolin4(3H)-one] | 100%

Structure (SMILES) | MIC (Aspergillus fumigatus) | MIC (C. krusei) | MIC (C. albicans) | responders at 1 mg/kg (Candida albicans)
CC(=O)ONC(=N)c1ccc(-c2cc3ncn([C@H](C)[C@](O)(Cn4cncn4)c4ccc(F)cc4F)c(=O)c3s2)cc1 [Example 68] | 20 µg/mL (≈ 34.5 µM) | 10 µg/mL (≈ 17.3 µM) | 0.31 µg/mL (≈ 0.535 µM) | 

Reference: patent US5807854A, “Pyrimidone derivatives with antifungal activity” (J. Uriah & Cia. S.A., priority 1995, dated 1998)
